Reference: BigSolDB 2.1

COc1ccc(P(=O)(c2ccc(OC)cc2)c2ccc(OC)cc2)cc1
Settings	solubility (mole fraction)
in 2-butanone, 288.15 K	0.00567
in 2-butanone, 293.16 K	0.00642
in 2-butanone, 298.17 K	0.00725
in 2-butanone, 303.18 K	0.00814
in 2-butanone, 308.14 K	0.00907
in 2-butanone, 313.16 K	0.0102
in 2-butanone, 318.17 K	0.0112
in 2-butanone, 323.16 K	0.0125
in 2-butanone, 328.17 K	0.0139
in 2-butanone, 333.16 K	0.0153
in 2-ethoxyethanol, 293.16 K	0.00573
in 2-ethoxyethanol, 298.17 K	0.00716
in 2-ethoxyethanol, 303.18 K	0.00919
in 2-ethoxyethanol, 308.14 K	0.0114
in 2-ethoxyethanol, 313.16 K	0.0143
in 2-ethoxyethanol, 318.17 K	0.0175
in 2-ethoxyethanol, 323.16 K	0.0223
in 2-ethoxyethanol, 328.17 K	0.0276
in 2-ethoxyethanol, 333.17 K	0.033
in 2-ethoxyethanol, 338.25 K	0.0401
in 2-ethoxyethanol, 343.17 K	0.0482
in benzene, 293.16 K	0.00031
in benzene, 298.17 K	0.00039
in benzene, 303.18 K	0.00048
in benzene, 308.14 K	0.00061
in benzene, 313.16 K	0.00076
in benzene, 318.17 K	0.00094
in benzene, 323.16 K	0.00112
in cyclohexane, 298.15 K	0.00053
in cyclohexane, 304.05 K	0.00082
in cyclohexane, 308.32 K	0.00113
in cyclohexane, 313.95 K	0.00166
in cyclohexane, 318.45 K	0.00229
in cyclohexane, 323.65 K	0.00322
in cyclohexane, 328.45 K	0.00455
in cyclohexane, 332.85 K	0.00589
in cyclohexane, 337.65 K	0.00806
in diethyl ether, 293.16 K	0.00607
in diethyl ether, 296.17 K	0.00739
in diethyl ether, 299.18 K	0.00929
in diethyl ether, 301.16 K	0.0106
in diethyl ether, 303.15 K	0.0118
in ethanol, 298.25 K	0.00037
in ethanol, 303.75 K	0.00049
in ethanol, 308.05 K	0.00067
in ethanol, 313.35 K	0.00102
in ethanol, 317.75 K	0.00128
in ethanol, 322.35 K	0.00168
in ethanol, 328.15 K	0.00236
in methanol, 293.35 K	0.00019
in methanol, 298.25 K	0.00024
in methanol, 303.15 K	0.00031
in methanol, 308.05 K	0.00042
in methanol, 313.15 K	0.00056
in methanol, 318.15 K	0.00071
in methanol, 322.65 K	0.00098
in toluene, 293.16 K	0.00036
in toluene, 298.17 K	0.00045
in toluene, 303.18 K	0.00055
in toluene, 308.14 K	0.00066
in toluene, 313.16 K	0.00083
in toluene, 318.17 K	0.00099
in toluene, 323.16 K	0.00121
in toluene, 328.17 K	0.00143
in toluene, 333.15 K	0.00169

O=C(O)CCP(=O)(O)c1ccccc1
Settings	solubility (mole fraction)
in 2-butanone, 293.16 K	0.00061
in 2-butanone, 298.17 K	0.00077
in 2-butanone, 303.18 K	0.00103
in 2-butanone, 308.14 K	0.00127
in 2-butanone, 313.16 K	0.00163
in 2-butanone, 318.17 K	0.00206
in 2-butanone, 323.16 K	0.00253
in 2-butanone, 328.16 K	0.00316
in 2-butanone, 333.15 K	0.00395
in 2-ethoxyethanol, 293.16 K	0.0461
in 2-ethoxyethanol, 298.17 K	0.0512
in 2-ethoxyethanol, 303.18 K	0.0571
in 2-ethoxyethanol, 308.14 K	0.0638
in 2-ethoxyethanol, 313.16 K	0.0709
in 2-ethoxyethanol, 318.17 K	0.0777
in 2-ethoxyethanol, 323.16 K	0.0849
in 2-ethoxyethanol, 328.16 K	0.0937
in 2-ethoxyethanol, 333.15 K	0.102
in acetic acid, 293.16 K	0.0105
in acetic acid, 298.17 K	0.0116
in acetic acid, 303.18 K	0.013
in acetic acid, 308.14 K	0.0147
in acetic acid, 313.16 K	0.0164
in acetic acid, 318.17 K	0.0182
in acetic acid, 323.16 K	0.0205
in acetic acid, 328.16 K	0.0225
in acetic acid, 333.15 K	0.0249
in acetone, 293.16 K	0.00074
in acetone, 298.17 K	0.00093
in acetone, 303.18 K	0.00124
in acetone, 308.14 K	0.00153
in acetone, 313.16 K	0.00197
in acetone, 318.17 K	0.00248
in acetone, 323.16 K	0.00305
in acetonitrile, 293.16 K	6e-05
in acetonitrile, 298.17 K	0.0001
in acetonitrile, 303.18 K	0.00015
in acetonitrile, 308.14 K	0.00023
in acetonitrile, 313.16 K	0.00035
in acetonitrile, 318.17 K	0.00053
in acetonitrile, 323.16 K	0.00078
in acetonitrile, 328.16 K	0.00109
in acetonitrile, 333.15 K	0.00161
in benzene, 293.16 K	0.00081
in benzene, 298.17 K	0.00091
in benzene, 303.18 K	0.00099
in benzene, 308.14 K	0.00107
in benzene, 313.16 K	0.00114
in benzene, 318.17 K	0.00126
in benzene, 323.16 K	0.00134
in benzene, 328.16 K	0.00145
in benzene, 333.15 K	0.00156
in chloroform, 288.15 K	0.00021
in chloroform, 293.16 K	0.00026
in chloroform, 298.17 K	0.00033
in chloroform, 303.18 K	0.00041
in chloroform, 308.14 K	0.00052
in chloroform, 313.16 K	0.00063
in chloroform, 318.17 K	0.00079
in chloroform, 323.16 K	0.00093
in chloroform, 328.16 K	0.00112
in chloroform, 333.15 K	0.00133
in cyclohexane, 293.16 K	0.00088
in cyclohexane, 298.17 K	0.00108
in cyclohexane, 303.18 K	0.00128
in cyclohexane, 308.14 K	0.00157
in cyclohexane, 313.16 K	0.00186
in cyclohexane, 318.17 K	0.00222
in cyclohexane, 323.16 K	0.00263
in cyclohexane, 328.16 K	0.00314
in cyclohexane, 333.15 K	0.00371
in dichloromethane, 288.15 K	0.00029
in dichloromethane, 293.16 K	0.00042
in dichloromethane, 298.17 K	0.00059
in dichloromethane, 303.18 K	0.0008
in dichloromethane, 308.14 K	0.00111
in dichloromethane, 313.16 K	0.00149
in ethyl acetate, 293.16 K	0.00128
in ethyl acetate, 298.17 K	0.00148
in ethyl acetate, 303.18 K	0.00162
in ethyl acetate, 308.14 K	0.00182
in ethyl acetate, 313.16 K	0.00202
in ethyl acetate, 318.17 K	0.00226
in ethyl acetate, 323.16 K	0.00254
in ethyl acetate, 328.16 K	0.00281
in ethyl acetate, 333.15 K	0.00311
in toluene, 293.16 K	0.00051
in toluene, 298.17 K	0.00059
in toluene, 303.18 K	0.00068
in toluene, 308.14 K	0.00079
in toluene, 313.16 K	0.00092
in toluene, 318.17 K	0.00105
in toluene, 323.16 K	0.00119
in toluene, 328.16 K	0.00138
in toluene, 333.15 K	0.00154
in water, 298.25 K	0.00178
in water, 308.66 K	0.00366
in water, 318.07 K	0.00671
in water, 327.17 K	0.0133
in water, 337.55 K	0.0249
in water, 342.75 K	0.0339
in water, 345.06 K	0.0412
in water, 349.47 K	0.0568
